The values that follow come from ChEMBL document CHEMBL1201862, “PubChem BioAssay data set” (2004).

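Briefly, cells in 96-well plates were exposed to five compound concentrations for 48 h, and endpoints were estimated by linear interpolation. Here, GI50 denotes the concentration required for 50% inhibition of growth.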 Active and inactive are the calls of the source. No stated cut-off is given here; in the data, active = GI50 up to about 1.1 µM and inactive = higher.

What all share (test): growth of human tumour cells (NCI), 48 h
Experiment [1] has as its system SNB-19.
Experiment [2] concerns NCI-H522.
In experiment [3] the test system is NCI-H460.
For experiment [4], the system named is SK-MEL-5.
Experiment [5] relates to DU-145.
For experiment [6], the system named is A549.
In experiment [7] the test system is HCC 2998.
In experiment [8] the test system is SK-OV-3.
Experiment [9] deals with SR.
Experiment [10] deals with COLO 205.
Experiment [11] relates to RPMI-8226.
Experiment [12] concerns HOP-92.
In experiment [13] the test system is KM12.
Experiment [14] deals with U-251.
The test system of experiment [15] is HCT-15.
Experiment [16] deals with CAKI-1.
In experiment [17] the test system is UACC-62.
In experiment [18] the test system is MDA-N.
The test system of experiment [19] is MOLT-4.
The subject of experiment [20] is HOP-62.

In the case of `CCCN1CN(c2ccccc2)C2(CCN(CCCC(=O)c3ccc(F)cc3)CC2)C1=O`, the GI50 is 13.2 µM (inactive) in experiment [1]; 20.3 µM (inactive) in experiment [2]; 12.7 µM (inactive) in experiment [3]; 1.44 µM (inactive) in [4]; 1.53 µM (inactive) in experiment [5]; 6.61 µM (inactive) in experiment [6]. For the same compound, the GI50 was 7.82 µM (inactive) in experiment [7]; 19.1 µM (inactive) in experiment [8]; 16.6 µM (inactive) in experiment [9]; 0.169 µM (active) in experiment [10]; 12.4 µM (inactive) in experiment [11]; 3.41 µM (inactive) in experiment [12]. The GI50 in [13] was 16.3 µM (inactive); in experiment [14], 14.7 µM (inactive); in experiment [15], 4.31 µM; in [16] it was 4.61 µM (inactive); in experiment [17] it was 16.3 µM (inactive); in experiment [18], 9.38 µM (inactive). Moreover, the GI50 was 4.2 µM (inactive) in [19] and 2.7 µM (inactive) in [20].
Consider `CNC(=S)N/N=C/c1cccc(C)n1`, for which the GI50 in [1] was 51.9 µM (inactive); in experiment [2], 27.2 µM (inactive); in experiment [3], 19.9 µM (inactive); in [4], 25.1 µM (inactive); in experiment [5], 28.8 µM (inactive); in [6] it was 39 µM (inactive). The GI50 in experiment [7] is > 54 µM (inactive); in experiment [8] it was 37.2 µM (inactive); in experiment [9] it was > 41.9 µM (inactive); in [10] it was 38.2 µM (inactive); in [11] it was > 59.8 µM (inactive); in experiment [12] it was 55.8 µM (inactive). In addition, the GI50 in experiment [13] was 61.1 µM (inactive); in [14] it was 26.1 µM (inactive); in experiment [15], 26 µM; in [16] it was 47.6 µM (inactive); in experiment [17], 23.6 µM (inactive); in [18], 42 µM (inactive). Besides, the GI50 in experiment [19] was 39.8 µM (inactive); in experiment [20], 20.7 µM (inactive).
As for `CC1OC(OC2C(O)COC(OC3C(C)OC(OC4C(OC(=O)[C@]56CCC(C)(C)C[C@@H]5C5=CCC7[C@@]8(C)C[C@H](O)[C@H](OC9OC(CO)C(O)C(OC%10OC(CO)C(O)C(O)C%10O)C9O)[C@@](C)(CO)[C@@H]8CC[C@@]7(C)[C@]5(C)CC6)OCC(O)C4O)C(O)C3OC3OCC(O)(CO)C3O)C2O)C(O)C(O)C1O` (stereo not given in full), the GI50 was 8.89 µM (inactive) in experiment [1]; 7.96 µM (inactive) in experiment [2]; 12.7 µM (inactive) in experiment [3]; 8.05 µM (inactive) in experiment [4]; 8.28 µM (inactive) in experiment [5]; 6.61 µM (inactive) in experiment [6]. For the same compound, the GI50 in experiment [7] was 8.09 µM (inactive); in experiment [8] it was 9.29 µM (inactive); in [9], 6.28 µM (inactive); in [10], 6.31 µM (inactive); in [11] it was 13.6 µM (inactive); in experiment [12], 10.2 µM (inactive). Moreover, the GI50 in [13] is 9.48 µM (inactive); in experiment [14], 10.4 µM (inactive); in experiment [15], 7.71 µM; in [16] it was 3.98 µM (inactive); in experiment [17] it was 12.9 µM (inactive); in experiment [18], 10.2 µM (inactive). The GI50 is 9.77 µM (inactive) in [19] and 9.95 µM (inactive) in experiment [20].
In the case of `COc1ccc2nccc(NCCCN3CCN(CCCNc4ccnc5ccc(OC)cc45)CC3)c2c1`, the GI50 in experiment [1] is 0.927 µM (active); in [2], 0.0334 µM (active); in experiment [3], 0.296 µM (active); in experiment [4] it was 1.06 µM (active); in experiment [5], 0.508 µM (active); in experiment [6], 0.296 µM (active). Further, the GI50 in experiment [7] was 0.505 µM (active); in [8], 1.53 µM (inactive); in experiment [9], 0.505 µM (active); in experiment [10], 0.261 µM (active); in experiment [11], 0.264 µM (active); in experiment [12] it was 0.226 µM (active). Moreover, the GI50 in experiment [13] is 0.357 µM (active); in experiment [14], 0.232 µM (active); in [15], 11.8 µM; in experiment [16], 3.69 µM (inactive); in [17] it was 0.918 µM (active); in experiment [18] it was 0.0881 µM (active). Besides, the GI50 in experiment [19] is 0.107 µM (active); in experiment [20], 0.966 µM (active).
As for `O=C1Nc2cccc(Cl)c2/C1=C\c1c(Cl)nc2n1CCS2`, the GI50 in experiment [1], in experiment [2], in [3], in experiment [4], in experiment [5] and in [6] was > 100 µM (inactive) in each case. The GI50 was > 100 µM (inactive) in experiment [7]; > 100 µM (inactive) in [8]; > 100 µM (inactive) in [9]; > 100 µM (inactive) in experiment [10]; > 100 µM (inactive) in experiment [11]; 56.9 µM (inactive) in experiment [12]. Also, the GI50 in [13] is > 100 µM (inactive); in experiment [14] it was > 100 µM (inactive); in experiment [15], 96.6 µM; in experiment [16] it was > 100 µM (inactive); in [17], 73.5 µM (inactive); in experiment [18], 45.6 µM (inactive). Besides, the GI50 in [19] and in experiment [20] was > 100 µM (inactive) each time.
Take `C[C@@]12CCC3C1C=C1C(=O)c4cc(O)ccc4C(=O)[C@]1(O2)[C@@]3(C)C=O`: the GI50 in experiment [1] is 8.95 µM (inactive); in [2], 2.94 µM (inactive); in [3], 2.85 µM (inactive); in experiment [4], 7.29 µM (inactive); in [5], 2.91 µM (inactive); in [6] it was 12 µM (inactive). For the same compound, the GI50 is 2.97 µM (inactive) in [7]; 10.2 µM (inactive) in [8]; 1.58 µM (inactive) in experiment [9]; 9.31 µM (inactive) in [10]; 2.2 µM (inactive) in [11]; 10.3 µM (inactive) in experiment [12]. Further, the GI50 in experiment [13] is 4.79 µM (inactive); in [14], 9.44 µM (inactive); in [15], 2.66 µM; in experiment [16] it was 4.09 µM (inactive); in experiment [17], 7.43 µM (inactive); in [18] it was 3.48 µM (inactive). Also, the GI50 was 2.3 µM (inactive) in experiment [19] and 8.59 µM (inactive) in experiment [20].
On to `O=C(O)CCC(=O)C(=O)O` [ALPHA-KETOGLUTARIC ACID], for which the GI50 in experiment [1], in experiment [2], in [3], in experiment [4], in experiment [5] and in [6] was > 100 µM (inactive) each time. Also, the GI50 in [7], in [8], in experiment [9], in [10], in experiment [11] and in experiment [12] was > 100 µM (inactive) in each case. Also, the GI50 in experiment [13] is > 100 µM (inactive); in experiment [14] it was > 100 µM (inactive); in [15], more than 100 µM; in experiment [16], > 100 µM (inactive); in experiment [17] it was > 100 µM (inactive); in experiment [18], > 100 µM (inactive). In addition, the GI50 in experiment [19] and in experiment [20] was > 100 µM (inactive) in each case.
As to `CC(C)C[C@H](NC(=O)CCc1cccc2ccccc12)B(O)O`, the GI50 was 5.43 µM (inactive) in experiment [1]; 1.24 µM (inactive) in experiment [2]; 3.21 µM (inactive) in experiment [3]; 0.457 µM (active) in experiment [4]; 4.62 µM (inactive) in experiment [5]; 4.74 µM (inactive) in [6]. In addition, the GI50 was 0.64 µM (active) in experiment [7]; 8.73 µM (inactive) in experiment [8]; 0.37 µM (active) in experiment [9]; 4.59 µM (inactive) in [10]; 0.331 µM (active) in [11]; 2.17 µM (inactive) in [12]. In addition, the GI50 in experiment [13] is 1.89 µM (inactive); in experiment [14], 1.7 µM (inactive); in experiment [15], 1.26 µM; in experiment [16] it was 0.368 µM (active); in experiment [17] it was 1.3 µM (inactive); in experiment [18] it was 0.452 µM (active). Besides, the GI50 is 0.375 µM (active) in [19] and 3.22 µM (inactive) in experiment [20].
For the compound `COc1cc2c(cc1OC)C(=O)N(c1ccc(OCCN3CCCC3)cc1)C2`, the GI50 in [1], in experiment [2], in experiment [3], in experiment [4], in experiment [5] and in [6] was > 100 µM (inactive) in each case. Moreover, the GI50 in [7], in [8], in [9], in experiment [10], in [11] and in experiment [12] was > 100 µM (inactive) in each case. The GI50 was > 100 µM (inactive) in [13]; > 100 µM (inactive) in experiment [14]; more than 100 µM in [15]; > 100 µM (inactive) in experiment [16]; > 100 µM (inactive) in experiment [17]; > 100 µM (inactive) in experiment [18]. The GI50 in experiment [19] and in experiment [20] was > 100 µM (inactive) each time.
